Values quoted from earlier work, collected in patent publication US6613768B1, “Treatment of female arousal disorder” (Lilly ICOS LLC, priority 1999, dated 2003).
Structures can show the parent of a compound that is named as a salt.

Test system: postmenopausal women with sexual dysfunction

CCCc1nn(C)c2c(=O)[nH]c(-c3cc(S(=O)(=O)N4CCN(C)CC4)ccc3OCC)nc12 [sildenafil, Sildenafil citrate]
women with clitoral discomfort/hypersensitivity who withdrew from the study (of the 7 women affected): 3 | clitoral discomfort and hypersensitivity, number of women (thirty-three postmenopausal women): 7 woman
